The source of these data is US5079247A, “N^1 -substituted benz(cd)indol-2-imine compounds as cardiovascular agents” (American Cyanamid Company, priority 1990, dated 1992).

Molecules are shown by their SMILES.

For assay [1], the target named is T1, thromboxane synthetase enzyme (Rattus norvegicus, UniProt P49430).
T1 construct: The platelets were isolated by centrifuging the PRP for 10 minutes; from tissue; host or cells: washed platelets from arterial blood of Okamoto-Aoki spontaneously hypertensive rats (animals from Taconic Farms)
T1 sequence (P49430 1-533): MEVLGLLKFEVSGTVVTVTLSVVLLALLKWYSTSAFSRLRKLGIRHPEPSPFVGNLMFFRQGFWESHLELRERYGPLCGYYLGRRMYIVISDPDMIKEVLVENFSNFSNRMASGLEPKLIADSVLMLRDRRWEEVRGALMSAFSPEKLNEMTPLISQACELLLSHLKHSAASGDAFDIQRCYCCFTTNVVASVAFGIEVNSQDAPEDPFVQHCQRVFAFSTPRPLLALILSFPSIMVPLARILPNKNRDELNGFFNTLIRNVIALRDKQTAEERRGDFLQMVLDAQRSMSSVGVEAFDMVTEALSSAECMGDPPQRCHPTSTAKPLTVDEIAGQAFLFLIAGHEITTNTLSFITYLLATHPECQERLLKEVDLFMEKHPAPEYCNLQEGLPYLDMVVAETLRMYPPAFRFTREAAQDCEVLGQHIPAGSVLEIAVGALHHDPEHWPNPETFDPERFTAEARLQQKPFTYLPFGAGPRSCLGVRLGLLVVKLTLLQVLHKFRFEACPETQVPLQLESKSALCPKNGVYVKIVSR
As to the kind of experiment: Thromboxane synthetase enzyme inhibition (TXB2 formation in platelet suspension, RIA). The format is cell-based, Okamoto-Aoki spontaneously hypertensive rats (SHR). To be noted: concentration 1 × 10^-4 M; SHR platelet suspension, 10 minutes at 37° C. Here is the method: Under urethan anethesia, […] of arterial blood from Okamoto-Aoki spontaneously hypertensive rats (SHR) (Taconic Farms, Germantown, New York) between 19 and 24 weeks in age was collected in 1 ml of 3.2% sodium citrate in a polystyrene tube. The blood was diluted with 3 ml of cold saline and centrifuged at room temperature for 15 minutes at 460Xg. The platelet rich plasma (PRP) was separated. The platelets were isolated by centrifuging the PRP for 10 minutes at 1060Xg and were washed in 4 ml of cold oxygenated Krebs phosphate buffer, pH 7.4. The chilled platelets, recovered from centrifuging at 800Xg for 10 minutes, were resuspended in oxygenated Krebs phosphate buffer and diluted to contain 4.5-6.0×10^4 platelets/μl. The inhibition of thromboxane (TX) formation was studied by determining the concentration of thromboxane B2 (TXB2), the stable hydrolysis product of TXA2. Assay samples, prepared on ice, contained 200 μl platelet suspension, 50 μl saline, and 50 μl vehicle or drug under study at a concentration of 1×10^-4 M. The samples were incubated for 10 minutes at 37° C. in metabolic shaker. The reaction was terminated by immersing the tubes in an ice bath and adding 50 μl of 0.5M citric acid. The samples were centrifuged for 10 minutes in a refrigerated centrifuge and the supernatants thus obtained were decanted and stored at -20° C. The TXB2 content for each sample was determined by a direct radioimmunoassay (RIA) utilizing a TXB2 specific RIA kit purchased from New England Nuclear, Boston, Massachusetts and expressed as pg TXB2 formed minute^-1 sample^-1, from which the percent inhibition of TXB2 formation was calculated.

The test system of assay [2] is spontaneously hypertensive rats of the Okamoto strain. As to the kind of experiment: Hypotensive activity in spontaneously hypertensive rats (method of Chan and Poorvin). It is filed as in vivo, rat. To be noted: by gavage, 100 mg/kg or less, two doses 24 hours apart; MABP at 28 hours after initial dose; average baseline MABP 160±1.5 mm of mercury. The method, then: The novel compounds of the present invention are active hypotensive agents and were tested for hypotensive activity by the method of P. S. Chan and D. Poorvin, Clinical and Experimental Hypertension, 1 (6), 817-830 (1979). Male, 16 week old, spontaneously hypertensive rats of the Okamoto strain, from Taconic Farms, Germantown, New York, having an average mean arterial blood pressure of 160±1.5 mm of mercury, were used in the test. One to 3 rats were used per test compound. […] A second identical dose of the test compound, without sodium chloride loading was given 24 hours later. At 28 hours after the initial dose the mean arterial blood pressure (MABP) was measured. The procedure was repeated in a second and third rat when necessary.

The test system of assay [3] is CaCl2-induced cardiac arrhythmias, fibrillation and cardiac death in mice. The assay is described as follows: Antiarrhythmic/antifibrillatory activity in anesthetized mice, calcium chloride challenge. The note with it: Mus musculus, iv, 0.25 h, calcium chloride 200 mg/kg i.v., read-out: CaCl2 Mice Surviving / Mice Tested (converted); for responders at 10 mg/kg: Dose = 10 mg/kg I.V., 15 minutes observation. It is filed as in vivo, mice of the Swiss Webster Strain. The text has this: (§1) Intravenous administration of high doses of calcium or potassium chloride in animals produces cardiac arrhythmias, cardiac fibrillation and cardiac arrest. Any agent that can prevent these events is considered an antiarrhythmic/antifibrillatory agent. (Meth. and Find Exptl. Clin Pharmacal.2:223-252(1980); Pharmacol Ther. 24:401-433 (1984); Experimental Cardiac and Antiarrhythmic Drugs, L. Szekeres and Gy. J. Dapp, Akademiai Kiado Preso, Budapest, 9-448 (1971)).
(§2) The method employed is as follows: Male mice of the Swiss Webster Strain (Charles River, Wilmington, MA) weighing 25-35 g were anesthetized with ethyl carbamate (urethan) (1.5g/kg body weight i.p.). A 25-gauge needle attached to PE-20 tubing was inserted into a caudal vein for drug administration. The lead II ECG was recorded by needle electrodes placed subcutaneously in the limbs. All data were collected on a Gould Brush recorder. Animals were observed 5 minutes before drug administration. A 5, 15 or 30 minute period following drug administration was allowed before the bolus injection of calcium chloride, 200 mg/ kg i.v. or potassium chloride, 62.5 mg/kg i.v. Control mice received 4 ml/kg of 0.9% sodium chloride i.v. Mice were observed an additional 15 minutes for arrhythmias,fibrillation, survival or death. Any compound at a dose of less than 20 mg/kg i.v. in either test that protects from cardiac death 3 or more mice out of 6 mice, is considered active.

Assay [4] has as its system KCl-induced cardiac arrhythmias, fibrillation and cardiac death in mice. The assay is described as follows: Antiarrhythmic/antifibrillatory activity in anesthetized mice, potassium chloride challenge. It is filed as in vivo, mice of the Swiss Webster Strain. To be noted: Mus musculus, iv, 0.25 h, potassium chloride 62.5 mg/kg i.v.; for responders at 10 mg/kg: Dose = 10 mg/kg I.V., 15 minutes observation, read-out: KCl Mice Surviving / Mice Tested (converted).
Text: as §1, §2

As usually defined, the inhibition is the relative decrease from the control value, in per cent. Low readings indicate a weak effect, high ones a strong effect.

In assay [1], `Cl.Cl.c1ccc(OCCCN2C(=NCCCn3ccnc3)c3cccc4cccc2c34)cc1` [Example 12, N-[1-(3-Phenoxypropyl)benz[cd]indol-2(1H)-ylidene]-1H-imidazole-1-propanamine, dihydrochloride] had an inhibition at 100 µM of 90%. Besides, in assay [2], the “Avg. MABP in mm Hg (No. of Rats)” value is recorded as 122 mm Hg.
Turning to `COc1cccc(CN2C(=NCCCn3ccnc3)c3cccc4cccc2c34)c1` [Example 14, N-[1-[(3Methoxyphenyl)methyl]benz[cd]indol-2(1H)-ylidene]-1H-imidazole-1-propanamine], in assay [2], the “Avg. MABP in mm Hg (No. of Rats)” value is listed as 104 mm Hg. For the same compound, the values for the responders at 10 mg/kg in assay [3] and in assay [4] were 16.7% and 66.7%, respectively.
As to `CCN(CC)CC(=O)Nc1c(C)cccc1C` [Lidocaine, reference compound], the responders at 10 mg/kg in assay [3] is 83.3%; in assay [4], 50%.
The compound `c1ccc(CN2C(=NCCCn3ccnc3)c3cccc4cccc2c34)cc1` [Example 6, N-[1-(Phenylmethyl)benz[cd]indol-2(1H)-ylidene]-1H-imidazole-1-propanamine,(E)-2-butenedioate (1:2)] registered an inhibition at 100 µM in assay [1] of 90%.
On to `N#CCCCCN1C(=NCCCn2ccnc2)c2cccc3cccc1c23` [Example 15, 2-[[3-(1H-Imidazol-1 yl)propyl]imino]benz[cd]indole-1(2H)-pentanenitrile], for which at 100 µM the inhibition in assay [1] was 94%. Moreover, the responders at 10 mg/kg in assay [3] is 16.7%; in assay [4] it was 50%.
In assay [1], `c1ccc(C(c2ccccc2)N2C(=NCCCn3ccnc3)c3cccc4cccc2c34)cc1` [Example 7, N-[1 (Diphenylmethyl)benz[cd]indol-2(1H)-ylidene]-1H-imidazole-1 propanamine] returned an inhibition at 100 µM of 75%. In addition, the results for the responders at 10 mg/kg in assay [3] and in assay [4] were 16.7% and 83.3%, respectively.
In turn, `CCCCCCN1C(=NCCCn2ccnc2)c2cccc3cccc1c23` [Example 16, N-(1-Hexylbenz[cd]indol-2(1H)-ylidene)-1H-imidazole 1-propanamine, (E)-2-butenedioate (1:2)] came in with an inhibition at 100 µM in assay [1] of 94%.
Regarding `c1cc2c3c(cccc3c1)N(CCCN1C(=NCCCn3ccnc3)c3cccc4cccc1c34)C2=NCCCn1ccnc1` [Example 20, N,N'-[1,3-Propanediylbis(benz[cd]indol-1(2H)-ylidene)]bis-1H-imidazole-1-propanamine], the responders at 10 mg/kg is 66.7% in assay [3] and 0% in assay [4].
`c1ccc(CCCN2C(=NCCCn3ccnc3)c3cccc4cccc2c34)cc1` [Example 13, N-[1-(3-Phenylpropyl)benz[cd]indol-2(1H)-ylidene]-1H-imidazole-1-propanamine, (E)-2-butenedioate (1:2)] had an inhibition at 100 µM in assay [1] of 92%.
As for `CCN(CC)CCN1C(=NCCCn2ccnc2)c2cccc3cccc1c23` [Example 17, N,N-Diethyl-2-[[3-(1H-imidazol-1-yl)propyl]imino]benz[cd]indole-1(2H)-ethanamine, (E)-2butenedioate (1:3)], the responders at 10 mg/kg in assay [3] is 16.7%; in assay [4] it was 66.7%.
Turning to `CN1C(=NCCCn2ccnc2)c2cccc3c(CO)ccc1c23` [Example 21, 1,2-Dihydro-2-[[3-(1H-imidazol-1-yl)propyl]imino]-1-methylbenz[cd]indole-6-methanol, (E)-2-butanedioate (1:1)], the responders at 10 mg/kg in assay [3] is 43.8%; in assay [4], 83.3%.
Consider `CCN(CC)CCNC(=O)c1ccc(N)cc1` [Procainamide, reference compound], for which, in assay [4] (5 mg/kg i.v., read-out: KCl Mice Surviving / Mice Tested), the responders at 5 mg/kg is 70%.
The compound `CCN(CC)CCN1C(=NCc2cccnc2)c2cccc3cccc1c23` [Example 25, N,N-Diethyl-2-[(3-pyridinylmethyl)imino]benz[cd]indol-1(2H)ethanamine, (E)-2-butenedioate (2:3)] showed an inhibition at 100 µM in assay [1] of 91%. The responders at 10 mg/kg is 16.7% in assay [3] and 50% in assay [4].
Take `C=C[C@H]1C[N@@]2CC[C@H]1C[C@@H]2[C@@H](O)c1ccnc2ccc(OC)cc12` [Quinidine, reference compound]: the responders at 15 mg/kg is 75% in assay [3] (15 mg/kg i.v.) and 30% in assay [4] (15 mg/kg i.v., read-out: KCl Mice Surviving / Mice Tested).
Regarding `c1ccc(CN2C(=NCCCCc3cccnc3)c3cccc4cccc2c34)cc1` [Example 29, N-[1-(Phenylmethyl)benz[cd]indol-2(1H)-ylidene]-3-pyridinebutanamine, (E)-2 butenedioate (1:2)], the results for the responders at 10 mg/kg in assay [3] and in assay [4] were 33.3% and 66.7%, respectively.
In the same order, the values of `CN1C(=NCCCn2ccnc2)c2cccc3cccc1c23` [Example 18, N-[1-Methylbenz[cd]indol-2(1H)-ylidene]-1H-imidazole-1-propanamine, (E)-2-butenedioate (1:2)] are 0% and 66.7%.
`CN1C(=NCCCCn2ccnc2)c2cccc3cccc1c23` [Example 22, N-(1-Methylbenz[cd]indol-2(1H)-ylidene)-1H-imidazole-1-butanamine]: the “Avg. MABP in mm Hg (No. of Rats)” value in assay [2] was found to be 112 mm Hg.
Regarding `c1ccc(C(c2ccccc2)N2C(=NCCCCc3cccnc3)c3cccc4cccc2c34)cc1` [Example 30], the responders at 10 mg/kg was 16.7% in assay [3] and 83.3% in assay [4].
For the compound `c1ccc(CN2C(=NCCCn3ccnc3)c3cccc4cccc2c34)cc1` [Example 5, N-[1-(Phenylmethyl)benz[cd]indol-2 (1H)-ylidene]-1H-imidazole-1-propanamine], the responders at 10 mg/kg in assay [3] and in assay [4] was 83.3% throughout.
Consider `CCCCCCN1C(=NCCCCc2cccnc2)c2cccc3cccc1c23` [Example 33, N-(1-Hexylbenz[cd]indol-2(1H)-ylidene)-3-pyridinebutanamine, (E)-2-butenedioate (2:3)], for which at 100 µM the inhibition in assay [1] was 93%.
